The source made the active and inactive calls. No cut-off for these calls is given here. Where a SMILES comes first, the peptide text is derived from it. [ ]: non-standard residue; d: D form. Hica(2S) = CC(C)C[C@H](O)C(=O)O; NMeL = CN[C@@H](CC(C)C)C(=O)O
Columns and labels:
[1] = system: ST-13; assay: Induction of mouse ST-13 cell differentiation assessed as increase in accumulation of lipid droplets in cytosol at 2 to 4 uM after 11 days by oil red o staining-based phase contrast microscopic analysis; format: functional
[2] = Upregulation of adiponectin mRNA expression in mouse ST-13 cells at 2 uM by RT-qPCR analysis relative to control; format: functional, cell-based
[3] = target: T1, Peroxisome proliferator-activated receptor gamma (Homo sapiens) (UniProt P37231); assay: Agonist activity at human PPARgamma ligand binding domain fused with GAL4 DNA binding domain transfected in African green monkey COS1 cells assessed as transcriptional activation after 24 hrs by Steady-Glo luciferase reporter gene assay; format: cell-based; settings: COS-1
T1 sequence (whole entry): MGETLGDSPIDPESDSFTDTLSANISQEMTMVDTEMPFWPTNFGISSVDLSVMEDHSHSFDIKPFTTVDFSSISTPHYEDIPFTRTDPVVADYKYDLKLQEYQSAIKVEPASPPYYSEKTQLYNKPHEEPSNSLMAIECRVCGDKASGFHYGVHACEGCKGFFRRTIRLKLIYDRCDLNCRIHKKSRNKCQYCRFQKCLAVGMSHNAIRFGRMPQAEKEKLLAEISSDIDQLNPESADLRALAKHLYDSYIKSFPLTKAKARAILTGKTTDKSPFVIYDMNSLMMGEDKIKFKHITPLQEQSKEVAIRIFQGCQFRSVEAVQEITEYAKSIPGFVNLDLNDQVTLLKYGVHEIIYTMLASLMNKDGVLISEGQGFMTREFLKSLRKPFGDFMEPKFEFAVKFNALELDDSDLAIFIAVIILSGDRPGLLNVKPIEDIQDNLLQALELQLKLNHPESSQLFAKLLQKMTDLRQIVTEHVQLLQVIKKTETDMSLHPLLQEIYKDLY

Row | Activity [3] | SMILES | Activity [1] | fold change (FC) [2]
1 | Dose-dependent effect | CC(C)C[C@@H]1OC(=O)[C@H](Cc2ccccc2)NC(=O)[C@H](Cc2ccccc2)NC(=O)[C@H](CC(C)C)N(C)C(=O)[C@H](C(C)C)NC1=O (cyclo(FF[Hica(2S)]V[NMeL])) | Active | 13.3
2 | Dose-dependent effect | CC(C)C[C@@H]1NC(=O)[C@H](C(C)C)NC(=O)[C@H](CC(C)C)OC(=O)[C@H](Cc2ccccc2)NC(=O)[C@H](Cc2ccccc2)NC1=O (cyclo(FF[Hica(2S)]VL)) | Active | 5.2
3 | Dose-dependent effect | CC(C)C[C@@H]1OC(=O)[C@H](Cc2ccccc2)NC(=O)[C@H](Cc2c[nH]c3ccccc23)NC(=O)[C@H](CC(C)C)N(C)C(=O)[C@H](C(C)C)NC1=O (cyclo(F[Hica(2S)]V[NMeL]W)) | Active | 10
